Test results as given in ChEMBL document CHEMBL6071156 (Eur J Med Chem, 2024).

How the values were obtained:
[1] = Toxicity in Sham-infected C57BL/6 mouse model assessed as footpad swelling at 300 mg/kg/day, ip measured after 6 days post infection (reference value: -4.6+/-5.5); type: organism-based; conditions: in vivo, 144 h, time 6 day
[2] = molecular target: T1, A-type voltage-gated potassium channel KCND3 (Homo sapiens, UniProt Q9UK17); experiment: Antagonist activity at potassium channels hKv4.3/hKChiP2 expressed in HEK293 cells by Electrophysiology; type: toxicity, cell-based
T1 sequence (Q9UK17 whole entry): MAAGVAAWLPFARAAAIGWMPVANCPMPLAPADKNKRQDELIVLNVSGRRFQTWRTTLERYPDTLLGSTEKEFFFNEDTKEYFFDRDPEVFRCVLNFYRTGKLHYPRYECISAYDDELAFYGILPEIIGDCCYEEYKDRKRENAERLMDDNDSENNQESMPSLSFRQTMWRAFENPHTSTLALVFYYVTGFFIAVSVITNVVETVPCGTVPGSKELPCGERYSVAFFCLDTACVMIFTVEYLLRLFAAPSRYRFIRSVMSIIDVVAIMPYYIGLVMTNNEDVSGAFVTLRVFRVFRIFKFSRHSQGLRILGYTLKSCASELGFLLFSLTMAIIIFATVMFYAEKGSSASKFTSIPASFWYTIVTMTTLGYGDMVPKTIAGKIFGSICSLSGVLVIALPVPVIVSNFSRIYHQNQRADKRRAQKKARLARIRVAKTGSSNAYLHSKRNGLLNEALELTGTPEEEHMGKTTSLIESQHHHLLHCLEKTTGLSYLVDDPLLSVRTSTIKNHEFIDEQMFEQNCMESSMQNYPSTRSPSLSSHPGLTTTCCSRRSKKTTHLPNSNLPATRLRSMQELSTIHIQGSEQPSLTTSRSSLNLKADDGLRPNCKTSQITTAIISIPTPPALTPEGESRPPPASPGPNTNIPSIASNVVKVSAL

**Q.** With `CC1CCNc2c(C(=O)NC/C=C/S(C)(=O)=O)cccc21` (configuration not stated) as the compound, how does the Activity [1] read?
**A.** -1%

**Q.** What about the IC50 [2] of the same compound?
**A.** > 100 µM
